Patent US20080241215A1, “LOCAL VASCULAR DELIVERY OF PROBUCOL ALONE OR IN COMBINATION WITH SIROLIMUS TO TREAT RESTENOSIS, VULNERABLE PLAQUE, AAA AND STROKE” (priority 2007, published 2008)

Tests used:
[1] = Drug concentration in liquid formulations (liquid chromatography); type: physicochemical; conditions: ethanol, Vitamin E TPGS and water formulation, ethanol less than two percent
Method: The concentrations of each constituent were determined by liquid chromatography and are presented as weight by volume figures.
In another exemplary embodiment, the liquid formulation of sirolimus comprises water and ethanol as co-solvents and Vitamin E TPGS as the excipient. The liquid formulation was created utilizing the following process. Two hundred milligrams of sirolimus and two grams of ethanol were added to a pre-weighed twenty milliliter scintillation vial. The vial was vortexed and sonicated until the sirolimus was completely dissolved. Approximately six hundred milligrams of Vitamin E TPGS was then added to the solution of ethanol and sirolimus. The vial was vortexed again until a clear yellowish solution was obtained. Nitrogen gas was then used to reduce the amount of ethanol in the vial to approximately two hundred twenty-nine milligrams. In a separate vial, three hundred milligrams of Vitamin E TPGS was dissolved in eleven milliliters of purified water while undergoing vortexing. The Vitamin E TPGS and water solution was then added to the first vial containing the sirolimus, Vitamin E TPGS and ethanol. The first vial was then vortexed vigorously and continuously for three minutes.
In another exemplary embodiment, a liquid formulation of CCI-779, a sirolimus analog, is prepared utilizing ethanol, Vitamin E TPGS and water. […]

[2] = system: human coronary artery smooth muscle cells; experiment: Proliferation of cultured human coronary artery smooth muscle cells; type: cell-based
Method: The multiple curves represent various concentrations of topotecan ranging from zero to three hundred nanomolar concentrations. […]
Curve 8702 illustrates the percent inhibition for various concentrations. In FIG. 88, the six curves 8802, 8804, 8806, 8808, 8810 and 8812 represent various concentrations of PX867 with various concentrations of sirolimus. […] More specifically, curve 8812 illustrates the percent inhibition for a 240 nM PX-867 concentration. […] This may be compared to curve 8804 which represents a 15 nM PX-867 concentration.

[3] = Porcine drug elution PK studies (in vivo release from stent coating); conditions: for drug remaining in the drug coating: after eight (8) days of implantation, single-layer sirolimus/cilostazol EVA/BMA coating with 100 μg BMA overcoat (FIG. 83)
[4] = system: human coronary artery smooth muscle cell; experiment: MTS cytotoxicity assay; type: cell-based; conditions: concentrations up to 30,000.00 nanomolar
Text: Typically, a control is utilized to determine baseline toxicity.

[5] = In vitro release kinetics from stent coating; type: physicochemical; conditions: single-layer sirolimus/cilostazol EVA/BMA coating with 100 μg BMA overcoat (FIG. 83)
Text: In the study, the rapamycin and Panzem® are incorporated into different layers of a polymeric coating. In this study, a Bx Velocity stent is coated with a four hundred microgram inner layer and a three hundred microgram outer layer. The inner layer comprises forty-five percent Panzem® and fifty-five percent EVA/BMA (50/50). […] There is no topcoat of just polymer in this study. Curve 7100 illustrates the release kinetics of Panzem® from the coating.
Another critical parameter for the performance of the thrombus resistance of a device coated with cilostazol is the duration of the drug release from the coating. This is of particular significance in the two weeks after device implantation. In the porcine drug elution PK studies of the dual drug eluting coating, both cilostazol and sirolius were slowly released from the coating, resulting in a sustained drug release profile. The purpose of the porcine PK study is to assess the local pharmacokinetics of a drug eluting stent at a given implantation time. Normally three stents are implanted in three different coronary arteries in a pig for a given time point and then retrieved for total drug recovery analysis. […] The stents are extracted and the total amount of drug remaining on the stents is determined by analysis utilizing HPLC (high performance liquid chromatography) for total drug amount. […]

cell viability = experiment: Cell viability assay; type: cell-based
Text: The multiple curves represent various concentrations of topotecan ranging from zero to three hundred nanomolar concentrations.
The multiple curves represent various concentrations of etoposide ranging from zero to eight hundred nanomolar concentrations.

tumor cell lines = tumor cell lines (Woo et al. 2002); cited from earlier work

CO[C@H]1C[C@@H]2CC[C@@H](C)[C@@](O)(O2)C(=O)C(=O)N2CCCC[C@H]2C(=O)O[C@H]([C@H](C)C[C@@H]2CC[C@@H](OC(=O)C(C)(CO)CO)[C@H](OC)C2)CC(=O)[C@H](C)/C=C(\C)[C@@H](O)[C@@H](OC)C(=O)[C@H](C)C[C@H](C)/C=C/C=C/C=C/1C [CCI-779]
concentration in the final solution (HPLC assay) [1]: 15000 µg/mL

Nc1nc(Cl)nc2c1ncn2[C@H]1C[C@H](O)[C@@H](CO)O1 [Cladribine, 2-chlorodeoxyadenosine]
inhibition of human coronary artery smooth muscle cell proliferation ([2]; non-synchronized cells, two percent fetal bovine serum): completely inhibits | effect on anti-proliferative rapamycin dose response curves ([2]; non-synchronized cells, two percent fetal bovine serum, cladribine zero to nine hundred nanomolar): potentiate the anti-proliferative activity of rapamycin | in vivo elution relative to rapamycin ([3]; EVA/BMA basecoat with rapamycin and cladribine, 200 μg BMA topcoat, Yorkshire pigs): elutes more rapidly than rapamycin

COC[C@H]1OC(=O)/C(=C\N2CCCC2)C2=C(O)C(=O)C3=C([C@H](OC(C)=O)C[C@]4(C)C(=O)CC[C@@H]34)[C@]21C [PX-867]
inhibition of coronary artery smooth muscle cell proliferation ([2]; PX867 alone at a concentration of about 10^−6): one hundred | combination effect with sirolimus on percent inhibition ([2]; cultured cells, PX-867 15 nM to 240 nM with various sirolimus concentrations): strong synergistic effect

COc1cc2c(cc1O)CC[C@@H]1[C@@H]2CC[C@]2(C)[C@@H](O)CC[C@@H]12 [Panzem®, 2-methoxyestradiol]
anti-proliferative activity ([2]; synchronized cells, two percent fetal bovine serum): extremely effective inhibitor | effect on percent inhibition by rapamycin ([2]; synchronized cells, two percent fetal bovine serum, Panzem zero to 100 micromolar): increases the percent of inhibition of rapamycin alone | cell survival (MTS assay) [4]: do not reduce human coronary artery smooth muscle cell survival

O=C1CCc2cc(OCCCCc3nnnn3C3CCCCC3)ccc2N1 [cilostazol, 6[4-(1-cyclohexyl-1H-tetrazol-5-yl)-butoxy]-3,4-dihydro-2-(1H)-quinolinone]
drug remaining in the drug coating [3]: ~80% | in vitro drug release [5]: ~35%

COc1cc([C@@H]2c3cc4c(cc3[C@@H](O[C@@H]3O[C@@H]5CO[C@@H](C)O[C@H]5[C@H](O)[C@H]3O)[C@H]3COC(=O)[C@H]23)OCO4)cc(OC)c1O [etoposide]
effect on anti-proliferative rapamycin dose response curves ([2]; non-synchronized cells, two percent fetal bovine serum, etoposide zero to eight hundred nanomolar): potentiate the anti-proliferative activity of rapamycin | cytotoxicity in cell viability assay (cell viability; concentrations up to ten micromolar): non-cytotoxic

COc1c(C)c2c(c(O)c1C/C=C(\C)CCC(=O)O)C(=O)OC2 [mycophenolic acid]
effect on anti-proliferative rapamycin dose response curve ([2]; non-synchronized cells, two percent fetal bovine serum, mycophenolic acid zero to one thousand nanomolar): potentiates the anti-proliferative activity of rapamycin | in vivo elution relative to rapamycin ([3]; EVA/BMA basecoat with 180 μg rapamycin and 180 μg mycophenolic acid, BMA topcoat 0-200 μg): elutes more completely over a shorter duration than the rapamycin

CO[C@H]1C[C@@H]2CC[C@@H](C)[C@@](O)(O2)C(=O)C(=O)N2CCCC[C@H]2C(=O)O[C@H]([C@H](C)C[C@@H]2CC[C@@H](O)[C@H](OC)C2)CC(=O)[C@H](C)/C=C(\C)[C@@H](O)[C@@H](OC)C(=O)[C@H](C)C[C@H](C)/C=C/C=C/C=C/1C [rapamycin]
drug remaining in the drug coating [3]: ~80%

CC[C@@]1(O)C(=O)OCc2c1cc1n(c2=O)Cc2cc3c(CN(C)C)c(O)ccc3nc2-1 [topotecan]
effect on anti-proliferative rapamycin dose response curves ([2]; synchronized cells, two percent fetal bovine serum, topotecan zero to three hundred nanomolar): potentiate the anti-proliferative activity of rapamycin | cytotoxicity in cell viability assay (cell viability; concentrations up to one micromolar): non-cytotoxic

CC(/C=C/C(=O)NO)=C\[C@@H](C)C(=O)c1ccc(N(C)C)cc1 [trichostatin A]
inhibition of human coronary artery smooth muscle cell proliferation ([2]; in vitro cell culture studies): completely inhibit | IC50 ([2]; in vitro cell culture studies, read-out: anti-proliferative IC50): ~6 nM | anti-proliferative IC50's (tumor cell lines): low nM range
